Test results from patent US20180344715A1, “WNT/BETA-CATENIN SIGNAL TRANSDUCTION INHIBITORS AND THEIR USE IN TREATMENT OR PREVENTION OF DISEASES AND CONDITIONS LINKED WITH SAID TRANSDUCTION” (BERGEN TEKNOLOGIOVERFORING AS, priority 2015, published 2018).

What was measured:
SW480-7TGC cells = assay: Wnt ACD assay; assay type: cell-based; conditions: 5 μM; never found in control cells
Description: Unequal Wnt signaling was considered when paired cells had intensity ratio higher than 2.

Apc^min/+ mice = assay: Apc min/+ mice study (intestinal adenomas, H&E and IHC); assay type: in vivo; conditions: 50 mg/kg daily for 5 weeks
Description: C57BL/6-Apc^min/+ mice were obtained from the Model Animal Research Center of Nanjing University (Nanjing, China). Mice were housed and fed a standard rodent diet at the Animal Facility of the Second Military Medical University (Shanghai, China) in compliance with the institutional guidelines of the Animal Care and Use Committee. […] The mice were weighed weekly and monitored daily for any signs of illness. The mice were sacrificed at the last day of the treatment. The small intestines were dissected, washed in PBS, fixed in 4% PBS-buffered formaldehyde and embedded in paraffin using standard procedures.
H&E and IHC were performed according to the protocol previously described (Qu, Y. et al, supra). Primary antibodies used for IHC were β-catenin (ab16051, 1:1000, Abcam), Ki67 (ab16667, clone SP6, 1:100, Abcam) and BrdU (ab6326, clone BU1/75, 1:80, Abcam). Investigators were blinded when counting the intestinal adenomas and assessing the homeostasis of mice and fish intestine. Histologic images were captured using the Qcapture Suite software with a Qimaging Exi Blue camera attached to a Leica DMRBE microscope.

RKO cells = assay: EdU label release assay, RKO; assay type: cell-based; conditions: 5 μM, 3 days
Experimental: (§1) Two days later, cells were seeded singly onto 12 mm glass coverslips in 24-well plates. One day after, EdU was detected using the Click-iT® Plus EdU Alexa Fluor 488 Imaging Kit (Life Technologies, C10637) according to the manufacturer's protocol. For double staining of EdU and other proteins, the EdU stained cells were further used for immunofluorescence staining as described above. Intensity of EdU staining in paired cells were quantified by Photoshop CS6 software, unequal EdU distribution was considered when paired cells had intensity ratio higher than 2.

MED23 = target: T1, MED23 (Homo sapiens, UniProt Q9ULK4); assay: Chromatin immunoprecipitation (ChIP) of MED23 at Wnt target genes; assay type: cell-based; conditions: SW480, 5 μM overnight
T1 construct: endogenous in cells; host or cells: SW480
T1 sequence (Q9ULK4 1-1368): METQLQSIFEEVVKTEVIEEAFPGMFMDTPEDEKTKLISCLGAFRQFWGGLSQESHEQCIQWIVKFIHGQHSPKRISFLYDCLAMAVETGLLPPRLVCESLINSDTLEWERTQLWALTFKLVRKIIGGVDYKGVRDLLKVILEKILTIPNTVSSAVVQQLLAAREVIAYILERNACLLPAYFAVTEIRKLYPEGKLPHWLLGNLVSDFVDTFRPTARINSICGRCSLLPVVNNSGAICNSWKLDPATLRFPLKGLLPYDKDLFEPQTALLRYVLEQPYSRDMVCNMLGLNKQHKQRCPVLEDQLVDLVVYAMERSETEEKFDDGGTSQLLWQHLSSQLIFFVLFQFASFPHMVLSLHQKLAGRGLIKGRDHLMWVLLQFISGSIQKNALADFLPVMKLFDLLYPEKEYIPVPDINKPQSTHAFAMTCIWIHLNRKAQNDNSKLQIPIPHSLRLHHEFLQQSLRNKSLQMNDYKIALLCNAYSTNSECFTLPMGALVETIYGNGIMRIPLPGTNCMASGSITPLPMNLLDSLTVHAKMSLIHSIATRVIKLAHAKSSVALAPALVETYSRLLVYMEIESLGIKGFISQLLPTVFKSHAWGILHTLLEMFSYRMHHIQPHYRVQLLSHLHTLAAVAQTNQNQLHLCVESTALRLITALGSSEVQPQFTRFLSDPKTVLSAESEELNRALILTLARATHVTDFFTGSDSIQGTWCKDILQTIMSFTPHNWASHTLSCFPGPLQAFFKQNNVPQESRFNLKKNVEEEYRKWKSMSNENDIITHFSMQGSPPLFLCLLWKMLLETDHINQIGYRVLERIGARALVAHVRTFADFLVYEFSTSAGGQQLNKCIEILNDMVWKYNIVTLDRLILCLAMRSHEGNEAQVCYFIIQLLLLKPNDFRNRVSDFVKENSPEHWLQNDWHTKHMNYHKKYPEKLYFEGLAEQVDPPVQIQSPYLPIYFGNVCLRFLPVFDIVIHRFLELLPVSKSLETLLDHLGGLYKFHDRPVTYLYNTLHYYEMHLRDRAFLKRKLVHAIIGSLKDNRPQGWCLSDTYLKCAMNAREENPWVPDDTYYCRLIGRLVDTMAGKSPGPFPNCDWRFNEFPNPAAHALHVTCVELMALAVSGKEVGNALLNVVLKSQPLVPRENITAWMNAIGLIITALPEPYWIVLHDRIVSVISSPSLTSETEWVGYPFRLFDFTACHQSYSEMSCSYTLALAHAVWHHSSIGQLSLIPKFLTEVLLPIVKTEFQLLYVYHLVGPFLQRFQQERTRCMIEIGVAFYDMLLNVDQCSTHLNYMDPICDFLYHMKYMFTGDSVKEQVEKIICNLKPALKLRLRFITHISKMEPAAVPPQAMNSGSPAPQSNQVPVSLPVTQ
Experimental: ChIP was performed according to the protocol previously described with a few modifications on the crosslinking procedures (Ke, X. S. et al., 2009, PLoS One 4, e4687). […] The reaction was quenched with 1/50 volume of 2.5 M glycine. Cells were lysed and the nuclei were sonicated to fragments ranging from 200 bp to 500 bp. After saving 0.2% total chromatin for input DNA purification, sonicated lysates were equally divided to three tubes and immunoprecipitated with Protein G beads (Life technologies, 10004D) coupled with 5 μg mouse IgG (15381, Sigma), antibody against MED23(BD550429, clone D27-1805, BD Biosciences) and β-catenin (ab22656, clone 12F7, Abcam), respectively. The immunoprecipitated DNA was purified and examined by PCR described below.
To determine the purified DNA from ChIP samples, quantitative PCR was performed with RT^2 SYBR Green/ROX PCR Master Mix and the PCR reactions were examined by 2% agarose gel electrophoresis. PCR primers were designed to cover the canonical TCF/β-catenin binding motifs of 6 randomly chosen β-catenin target genes (shown in FIG. 4c). The sequences and genomic locations (NCBI36/hg18) of PCR primers are listed below. GAPDH was used as a negative control.

SW480 cells = assay: EdU label release assay, SW480; assay type: cell-based; conditions: SW480, 5 μM, 3 days; never found in control cells
Experimental: as §1

`CNC(=O)c1ccccc1Sc1ccc2c(/C=C/c3ccccn3)n[nH]c2c1` [axitinib, N-Methyl-2-[[3-[(E)-2-pyridin-2-ylethenyl]-1H-indazol-6-yl]sulfanyl]benzamide] was tested, and the “paired cells with unequal TCF-GFP expression (Wnt ACD)” value (SW480-7TGC cells) was “up to 10%”, the “normal-looking small intestine: mucosa organization, crypt density, distribution of Ki67 positive cells” value (Apc^min/+ mice) was “no obvious change” and the “nuclear β-catenin in adenomas (IHC)” value (Apc^min/+ mice) was “reduced nuclear β-catenin”. For the same compound, the “staining of the proliferation marker Ki67 in adenomas” value (Apc^min/+ mice) was “Obviously weaker staining”, the “numbers of multi-villus adenomas and microadenomas” value (Apc^min/+ mice; oral gavage) was “significantly decreased” and the “EdU ACD” value (RKO cells) was “pre-treatment with 6B10 was required for EdU ACD induction”. For the same compound, the “MED23 occupancy at TCF/LEF-binding motifs of Wnt target genes” value (MED23) was “reduced” and the “cells with unequal EdU labelling (EdU ACD)” value (SW480 cells) was “around 15%”.
